# Measured values as given in patent US12180187B2, “1-phenyl-5-azinylpyrazolyl-3-oxyalkyl acids and their use for controlling unwanted plant growth” (BAYER AKTIENGESELLSCHAFT, priority 2019, dated 2024).
# Legend:
# SETVI [1] = experiment: Pre-emergence action against SETVI, 1280 g/ha; format: in vivo, Setaria viridis; conditions: visual scoring after about 3 weeks vs untreated controls, 100% = plants have died, 0% = like control plants
# Procedure, shortened: (§1)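 Mono- and dicot weed seeds sown in sandy loam were treated on the covering soil surface with WP or EC formulations plus 0.5% additive at 600 L water/ha. Pots stayed in a greenhouse; damage was scored visually after ~3 weeks as percent versus untreated controls (100% = dead).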
# MATIN [2] = experiment: Pre-emergence action against MATIN, 1280 g/ha; format: in vivo, Tripleurospermum inodorum (Matricaria inodora); conditions: scored visually after about 3 weeks vs untreated controls (100% = plants have died)
# Procedure, shortened: as §1
# LOLRI [3] = experiment: Pre-emergence action against LOLRI, 1280 g/ha; format: in vivo, Lolium rigidum; conditions: visual scoring after about 3 weeks vs untreated controls, 100% = plants have died, 0% = like control plants
# Procedure, shortened: as §1
# VERPE [4] = experiment: Post-emergence action against VERPE, 1.28 kg/ha; format: in vivo, Veronica persica; conditions: dosage 1280 g/ha, visual rating about 3 weeks after treatment vs untreated controls (100% = plants died)
# Procedure, shortened: (§2)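 Greenhouse-grown weeds (sandy loam, twin-sown pots) were treated 2–3 weeks post-sowing at one leaf. The spray was an aqueous WP/EC preparation plus 0.5% additive, applied at 600 L/ha. Scoring was visual at ~3 weeks, 0–100% versus untreated controls.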
# VERPE [5] = experiment: Pre-emergence action against VERPE, 1280 g/ha; format: in vivo, Veronica persica; conditions: scored visually after about 3 weeks vs untreated controls (100% = plants have died)
# Procedure, shortened: as §1
# DIGSA [6] = experiment: Pre-emergence action against DIGSA, 1280 g/ha; format: in vivo, Digitaria sanguinalis; conditions: visual scoring after about 3 weeks vs untreated controls, 100% = plants have died, 0% = like control plants
# Procedure, shortened: as §1
# ALOMY [7] = experiment: Pre-emergence action against ALOMY, 1280 g/ha; format: in vivo, Alopecurus myosuroides; conditions: visual scoring after about 3 weeks vs untreated controls, 100% = plants have died, 0% = like control plants
# Procedure, shortened: as §1
# STEME [8] = experiment: Pre-emergence action against STEME, 1280 g/ha; format: in vivo, Stellaria media; conditions: scored visually after about 3 weeks vs untreated controls (100% = plants have died)
# Procedure, shortened: as §1
# POAAN [9] = experiment: Pre-emergence action against POAAN, 1280 g/ha; format: in vivo, Poa annua; conditions: visual scoring after about 3 weeks vs untreated controls, 100% = plants have died, 0% = like control plants
# Procedure, shortened: as §1
# KCHSC [10] = experiment: Pre-emergence action against KCHSC, 1280 g/ha; format: in vivo, Bassia scoparia; conditions: scored visually after about 3 weeks vs untreated controls (100% = plants have died)
# Source text: 1. Pre-Emergence Herbicidal Effect and Crop Plant Compatibility a) Seeds of mono- and dicotyledonous weed plants are placed in plastic pots in sandy loam soil (doubly sown with one species each of mono- or dicotyledonous weed plants per pot) and covered with soil. The compounds of the invention, formulated in the form of wettable powders (WP) or as emulsion concentrates (EC), are then applied onto the surface of the covering soil as aqueous suspension or emulsion with addition of 0.5% additive at a water application rate equivalent to 600 litres per hectare. After the treatment, the pots are placed in a greenhouse and kept under good growth conditions for the trial plants. After about 3 weeks, the effect of the preparations is scored visually in comparison with untreated controls as percentages. For example, 100% activity=the plants have died, 0% activity=like control plants. 1. Pre-Emergence Effectiveness Tables 1 to 12 below show the effects of selected compounds of the general formula (I) according to Tables 1 and 2 on various harmful plants and at an application rate corresponding to 1280 g/ha, which were obtained by the experimental procedure mentioned above.
# AMARE [11] = experiment: Pre-emergence action against AMARE, 1280 g/ha; format: in vivo, Amaranthus retroflexus; conditions: scored visually after about 3 weeks vs untreated controls (100% = plants have died)
# Procedure, shortened: as §1
# MATIN [12] = experiment: Post-emergence action against MATIN, 1.28 kg/ha; format: in vivo, Tripleurospermum inodorum (Matricaria inodora); conditions: dosage 1280 g/ha, visual rating about 3 weeks after treatment vs untreated controls (100% = plants died)
# Procedure, shortened: as §2
# ALOMY [13] = experiment: Post-emergence action against ALOMY, 1.28 kg/ha; format: in vivo, Alopecurus myosuroides; conditions: dosage 1280 g/ha, visual rating about 3 weeks after treatment vs untreated controls
# Procedure, shortened: as §2
# ECHCG [14] = experiment: Post-emergence action against ECHCG, 1.28 kg/ha; format: in vivo, Echinochloa crus-galli; conditions: dosage 1280 g/ha, visual rating about 3 weeks after treatment vs untreated controls
# Procedure, shortened: as §2
# KCHSC [15] = experiment: Post-emergence action against KCHSC, 1.28 kg/ha; format: in vivo, Bassia scoparia; conditions: dosage 1280 g/ha, visual rating about 3 weeks after treatment vs untreated controls (100% = plants died)
# Protocol: • a) Seeds of mono- and dicotyledonous weed plants are placed in plastic pots in sandy loam soil (twin sowing with one species each of mono- or dicotyledonous weed plants per pot), covered with soil and cultivated in a greenhouse under controlled growth conditions. 2 to 3 weeks after sowing, the test plants are treated at the one-leaf stage. The compounds of the invention, formulated in the form of wettable powders (WP) or as emulsion concentrates (EC), are applied to the green parts of the plants as aqueous suspension or emulsion with addition of 0.5% additive at a water application rate equivalent to 600 litres per hectare. After the test plants have been kept in the greenhouse under optimum growth conditions for about 3 weeks, the activity of the preparations is rated visually in comparison to untreated controls. For example, 100% activity=the plants have died, 0% activity=like control plants. As shown by the results, compounds of the general formula (I) of the invention, in post-emergence treatment, have very good herbicidal efficacy (90% to 100% herbicidal action) against harmful plants such as Abutilon theophrasti, Digitaria sanguinalis, Echinochloa crus-galli, Matricaria inodora, Poa annua, at an application rate of 1.28 kg of active substance per hectare.
# POAAN [16] = experiment: Post-emergence action against POAAN, 1.28 kg/ha; format: in vivo, Poa annua; conditions: dosage 1280 g/ha, visual rating about 3 weeks after treatment vs untreated controls
# Procedure, shortened: as §2
# DIGSA [17] = experiment: Post-emergence action against DIGSA, 1.28 kg/ha; format: in vivo, Digitaria sanguinalis; conditions: dosage 1280 g/ha, visual rating about 3 weeks after treatment vs untreated controls
# Procedure, shortened: as §2
# ECHCG [18] = experiment: Pre-emergence action against ECHCG, 1280 g/ha; format: in vivo, Echinochloa crus-galli; conditions: visual scoring after about 3 weeks vs untreated controls, 100% = plants have died, 0% = like control plants
# Procedure, shortened: as §1
# ABUTH = experiment: Post-emergence action against ABUTH, 1.28 kg/ha; format: in vivo, Abutilon theophrasti; conditions: dosage 1280 g/ha, visual rating about 3 weeks after treatment vs untreated controls (100% = plants died)
# Procedure, shortened: as §2
# LOLRI [19] = experiment: Post-emergence action against LOLRI, 1.28 kg/ha; format: in vivo, Lolium rigidum; conditions: dosage 1280 g/ha, visual rating about 3 weeks after treatment vs untreated controls
# Procedure, shortened: as §2
# AMARE [20] = experiment: Post-emergence action against AMARE, 1.28 kg/ha; format: in vivo, Amaranthus retroflexus; conditions: dosage 1280 g/ha, visual rating about 3 weeks after treatment vs untreated controls (100% = plants died)
# Procedure, shortened: as §2
# STEME [21] = experiment: Post-emergence action against STEME, 1.28 kg/ha; format: in vivo, Stellaria media; conditions: dosage 1280 g/ha, visual rating about 3 weeks after treatment vs untreated controls (100% = plants died)
# Procedure, shortened: as §2
# MATIN [22] = experiment: Pre-emergence action at 320 g/ha against MATIN; format: in vivo, Tripleurospermum inodorum (Matricaria inodora); conditions: visual scoring after about 3 weeks vs untreated controls
# Procedure, shortened: (§3)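 Weed and crop seeds sown in pots and covered with soil; WP or EC formulations sprayed pre-emergence onto the soil surface at 320 g/ha with 0.5% additive in 600 l/ha water. Kept in greenhouse; after about 3 weeks activity scored visually as % versus untreated controls (100% = plants dead, 0% = as control).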
# SETVI [23] = experiment: Pre-emergence action at 320 g/ha against SETVI; format: in vivo, Setaria viridis; conditions: visual scoring after about 3 weeks vs untreated controls
# Procedure, shortened: as §3
# AMARE [24] = experiment: Pre-emergence action at 320 g/ha against AMARE; format: in vivo, Amaranthus retroflexus; conditions: visual scoring after about 3 weeks vs untreated controls
# Procedure, shortened: as §3
# ALOMY [25] = experiment: Pre-emergence action at 320 g/ha against ALOMY; format: in vivo, Alopecurus myosuroides; conditions: scored visually after about 3 weeks vs untreated controls (100% = plants have died)
# Procedure, shortened: as §3
# VERPE [26] = experiment: Pre-emergence action at 320 g/ha against VERPE; format: in vivo, Veronica persica; conditions: visual scoring after about 3 weeks vs untreated controls
# Procedure, shortened: as §3
# VIOTR = experiment: Pre-emergence action at 320 g/ha against VIOTR; format: in vivo, Viola tricolor; conditions: dosage 320 g/ha
# Procedure, shortened: as §3
# ALOMY [27] = experiment: Post-emergence action against ALOMY, 320 g/ha; format: in vivo, Alopecurus myosuroides; conditions: dosage 320 g/ha, visual rating about 3 weeks after treatment vs untreated controls (100% = plants died)
# Source text: Accordingly, the compounds of the invention have good herbicidal action against a broad spectrum of weed grasses and broad-leaved weeds and are therefore suitable for controlling unwanted vegetation by the post-emergence method. • b) Seeds of monocotyledonous and dicotyledonous weeds and crop plants are placed in sandy loam in plastic or organic planting pots, covered with soil and cultivated in a greenhouse under controlled growth conditions. 2 to 3 weeks after sowing, the test plants are treated at the one-leaf stage. The compounds of the invention, formulated in the form of wettable powders (WP) or as emulsion concentrates (EC), are then sprayed onto the green parts of the plants as aqueous suspension or emulsion with addition of 0.5% additive at a water application rate of 600 l/ha (converted). After the test plants have been kept in the greenhouse under optimum growth conditions for about 3 weeks, the activity of the preparations is rated visually in comparison to untreated controls. For example, 100% activity=the plants have died, 0% activity=like control plants. Tables 39 to 49 below show the effects of selected compounds of the general formula (I) according to Tables 1 and 2 on various harmful plants and at an application rate corresponding to 320 g/ha, which were obtained by the experimental procedure mentioned above.
# POLCO = experiment: Pre-emergence action at 320 g/ha against POLCO; format: in vivo, Fallopia convolvulus (Polygonum convolvulus); conditions: visual scoring after about 3 weeks vs untreated controls
# Procedure, shortened: as §3
# DIGSA [28] = experiment: Pre-emergence action at 320 g/ha against DIGSA; format: in vivo, Digitaria sanguinalis; conditions: visual scoring after about 3 weeks vs untreated controls
# Procedure, shortened: as §3
Compound,Pre-emergence action against SETVI (SETVI [1]) [%],Pre-emergence action against MATIN (MATIN [2]) [%],Pre-emergence action against LOLRI (LOLRI [3]) [%],Post-emergence action against VERPE (VERPE [4]) [%],Pre-emergence action against VERPE (VERPE [5]) [%],Pre-emergence action against DIGSA (DIGSA [6]) [%],Pre-emergence action against ALOMY (ALOMY [7]) [%],Pre-emergence action against STEME (STEME [8]) [%],Pre-emergence action against POAAN (POAAN [9]) [%],Pre-emergence action against KCHSC (KCHSC [10]) [%],Pre-emergence action against AMARE (AMARE [11]) [%],Post-emergence action against MATIN (MATIN [12]) [%],Post-emergence action against ALOMY (ALOMY [13]) [%],Post-emergence action against ECHCG (ECHCG [14]) [%],Post-emergence action against POAAN (POAAN [16]) [%],Post-emergence action against DIGSA (DIGSA [17]) [%],Pre-emergence action against ECHCG (ECHCG [18]) [%],Post-emergence action against ABUTH (ABUTH) [%],Post-emergence action against STEME (STEME [21]) [%],also measured
C[C@@H](Oc1nn(-c2ccccc2F)c(-c2cnccn2)c1Br)C(=O)O [Example I-002],100,100,90,90,100,100,90,100,100,100,100,,,,,,,,,
CON(C)C(=O)COc1nn(-c2ccc(F)cc2F)c(-c2ccc(F)nc2)c1Br [Example X-025],100,100,100,100,100,100,100,100,100,100,100,90,100,100,100,100,100,,,Post-emergence action against KCHSC (KCHSC [15]): 90%
O=C(O)C1CCN(C(=O)COc2nn(-c3ccccc3F)c(-c3cncc(F)c3)c2Br)C1 (stereo not shown) [Example X-040],90,90,90,100,90,90,,90,90,90,90,100,100,,100,90,90,90,,
O=C(COc1nn(-c2ccccc2F)c(-c2ccc(F)cn2)c1Br)NO [II-017],100,90,,90,,100,,90,100,100,100,90,100,,100,,,,,
CCOC(=O)COc1nn(-c2ccccc2C)c(-c2ccc(F)nc2)c1I [VII-058],100,100,100,90,100,100,90,100,100,90,100,90,100,100,100,100,100,90,90,Post-emergence action against LOLRI (LOLRI [19]): 100%; Post-emergence action against AMARE (AMARE [20]): 100%
CCOC(=O)COc1nn(-c2ccccc2C)c(-c2ccc(F)nc2)c1C(F)(F)F [VII-105],100,90,100,90,100,100,100,100,100,,100,100,100,100,100,100,100,,100,Pre-emergence action against MATIN in % (MATIN [22]): 100%; Pre-emergence action against SETVI in % (SETVI [23]): 80%; Pre-emergence action against AMARE in % (AMARE [24]): 90%; Pre-emergence action at 320 g/ha against ALOMY in % (ALOMY [25]): 90%; Pre-emergence action against VERPE in % (VERPE [26]): 90%; Pre-emergence action against VIOTR in % (VIOTR): 90%; Post-emergence action against ALOMY (ALOMY [27]): 90%; Pre-emergence action against POLCO in % (POLCO): 90%; Pre-emergence action against DIGSA in % (DIGSA [28]): 100%
